Measured values published in patent US6458384B2, “Pharmaceutical with predetermined activity profile” (priority 2000, dated 2002).

How the values were obtained:
[1] = Release According to USP (USP Paddle, 50 rpm), 0.1 N HCl then phosphate buffer pH 6.8; format: physicochemical; conditions: 0.1 N HCl 0-120 min, phosphate buffer pH 6.8 >120 min, 37° C.
Procedure: The term “release profile” refers to the pattern of release of the respective pharmacologically active substance over time, that is, the amount released over time. This may be measured either in vivo, e.g. indirectly by measuring the blood concentration, or preferably ex vivo, e.g. by the USP paddle method that allows for determination of the dissolution rate of the substance. […] Samples are withdrawn for determination of the amount of substance released in intervals of e.g. 30 or 60 min an analysed, e.g. spectrophotometrically, for example at 272 nm for caffeine, and/or using HPLC methods. A preferred method is described in the examples that may be used in analogy for other pharmaceuticals according to the invention. Preferred methods for analyzing blood or plasma levels of compounds are also described in the examples—analogous methods can be used for different active substances and are known int the art or easily derivable from the art. Where not indicated otherwise, percentages or other relative indications of amounts are given on a weight by weight (w:w) basis. The dissolution rate determination using the USP paddle apparatus has already been described above. The attrition rate of tablet cores for subsequent film-coating is preferably determined under standard conditions in a friabilator. The rate of attrition, i.e. the friability, is calculated. […] The crushing strength of tablets is determined in a tablet hardness tester (N=10). [table] [table] [table]

[2] = USP paddle test in phosphate buffer pH 6.8 of ethylcellulose-coated caffeine tablets; format: physicochemical
Procedure: The term “release profile” refers to the pattern of release of the respective pharmacologically active substance over time, that is, the amount released over time. This may be measured either in vivo, e.g. indirectly by measuring the blood concentration, or preferably ex vivo, e.g. by the USP paddle method that allows for determination of the dissolution rate of the substance. For example, a USP paddle apparatus operating at 37° C. and 50 rpm ist used and the preparations are tested in (e.g. 900 ml) artificial intestinal fluid, e.g. phosphate buffer pH 6.8; artificial gastric juice, e.g. 0.1 N HCl; or water. Samples are withdrawn for determination of the amount of substance released in intervals of e.g. 30 or 60 min an analysed, e.g. spectrophotometrically, for example at 272 nm for caffeine, and/or using HPLC methods.

## Cn1c(=O)c2c(ncn2C)n(C)c1=O [Caffeine]
[1]; Example 1 sachet formulation, 15 min
  Accumulated rel, Time (min) 15: 0.0%
[1]; Example 1 sachet formulation, 30 min
  Accumulated rel, Time (min) 30: 0.0%
[1]; Example 1 sachet formulation, 60 min
  Accumulated rel, Time (min) 60: 0.0%
[1]; Example 1 sachet formulation, 120 min
  Accumulated rel, Time (min) 120: 0.0%
[1]; Example 1 sachet formulation, 180 min
  Accumulated rel, Time (min) 180: 0.0%
[1]; Example 1 sachet formulation, 240 min
  Accumulated rel, Time (min) 240: 0.0%
[1]; Example 1 sachet formulation, 300 min
  Accumulated rel, Time (min) 300: 0.0%
[1]; Example 1 sachet formulation, 330 min
  Accumulated rel, Time (min) 330: 87.0%
[1]; Example 1 sachet formulation, 360 min
  Accumulated rel, Time (min) 360: 99.0%
[1]; Example 1 sachet formulation, 420 min
  Accumulated rel, Time (min) 420: 99.5%
[1]; Example 2 tablet formulation, 15 min
  Accumulated rel, Time (min) 15: 0.0%
[1]; Example 2 tablet formulation, 30 min
  Accumulated rel, Time (min) 30: 0.0%
[1]; Example 2 tablet formulation, 60 min
  Accumulated rel, Time (min) 60: 0.0%
[1]; Example 2 tablet formulation, 120 min
  Accumulated rel, Time (min) 120: 0.0%
[1]; Example 2 tablet formulation, 180 min
  Accumulated rel, Time (min) 180: 0.0%
[1]; Example 2 tablet formulation, 240 min
  Accumulated rel, Time (min) 240: 0.0%
[1]; Example 2 tablet formulation, 300 min
  Accumulated rel, Time (min) 300: 15.0%
[1]; Example 2 tablet formulation, 330 min
  Accumulated rel, Time (min) 330: 89.3%
[1]; Example 2 tablet formulation, 360 min
  Accumulated rel, Time (min) 360: 99.5%
[1]; Example 2 tablet formulation, 420 min
  Accumulated rel, Time (min) 420: 99.7%
[1]; Example 3 tablet formulation, 15 min
  Accumulated release, Time (min) 15: 0.0%
[1]; Example 3 tablet formulation, 30 min
  Accumulated release, Time (min) 30: 0.0%
[1]; Example 3 tablet formulation, 60 min
  Accumulated release, Time (min) 60: 0.0%
[1]; Example 3 tablet formulation, 120 min
  Accumulated release, Time (min) 120: 0.0%
[1]; Example 3 tablet formulation, 180 min
  Accumulated release, Time (min) 180: 0.0%
[1]; Example 3 tablet formulation, 240 min
  Accumulated release, Time (min) 240: 0.0%
[1]; Example 3 tablet formulation, 300 min
  Accumulated release, Time (min) 300: 5.3%
[1]; Example 3 tablet formulation, 330 min
  Accumulated release, Time (min) 330: 85.6%
[1]; Example 3 tablet formulation, 360 min
  Accumulated release, Time (min) 360: 99.0%
[1]; Example 3 tablet formulation, 420 min
  Accumulated release, Time (min) 420: 99.2%
[2]; Example 5 ethylcellulose-coated tablets, phosphate buffer pH 6.8, 5 out of six tested tablets
  time for releasing the complete amount of caffeine after release starts: ≤ 2 h
[2]; Example 5 test preparation: coated gelatine capsule with 6 caffeine tablets and 0.5 mg melatonin, stated from the properties of the tablets
  start of caffeine release after melatonin release: approximately 420 min
